# Source: ChEMBL document CHEMBL5614409, “Discovery of potent HIV-1 NNRTIs by CuAAC click-chemistry-based miniaturized synthesis, rapid screening and structure optimization” (Eur J Med Chem, 2024)
# Tested on: Human immunodeficiency virus 1
# Assay: Antiviral activity against HIV1 IIIB infected in MT4 cells assessed as reduction in virus induced cytopathic effect incubated for 5 days by MTT method
# Assay type: functional, organism-based
# Conditions: Human immunodeficiency virus 1, IIIB, MT4, 120 h
row,SMILES,EC50
1,CCNC(=O)Cn1cc(CN2CCC(Nc3nc(Oc4c(C)cc(/C=C/C#N)cc4C)c4sccc4n3)CC2)nn1,5 nM
2,Cc1cc(/C=C/C#N)cc(C)c1Oc1ccnc(NC2CCN(Cc3cn(CC(N)=O)nn3)CC2)n1,2 nM
3,Cc1cc(/C=C/C#N)cc(C)c1Oc1nc(NC2CCN(Cc3cn(CC(=O)NC4CCOCC4)nn3)CC2)nc2ccccc12,8 nM
4,CCNC(=O)Cn1cc(CN2CCC(Nc3nccc(Oc4c(C)cc(/C=C/C#N)cc4C)n3)CC2)nn1,1 nM

# Tested on: not listed separately
# Assay: Cytotoxicity against human MT4 cells assessed as reduction in cell viability incubated for 5 days by MTT method
# Assay type: toxicity, cell-based
# Conditions: time 5 day
row,SMILES,CC50 at 120 h
1,CCNC(=O)Cn1cc(CN2CCC(Nc3nc(Oc4c(C)cc(/C=C/C#N)cc4C)c4sccc4n3)CC2)nn1,17.5 µM
2,Cc1cc(/C=C/C#N)cc(C)c1Oc1ccnc(NC2CCN(Cc3cn(CC(N)=O)nn3)CC2)n1,47.4 µM
3,Cc1cc(/C=C/C#N)cc(C)c1Oc1nc(NC2CCN(Cc3cn(CC(=O)NC4CCOCC4)nn3)CC2)nc2ccccc12,18.4 µM
4,CCNC(=O)Cn1cc(CN2CCC(Nc3nccc(Oc4c(C)cc(/C=C/C#N)cc4C)n3)CC2)nn1,20.7 µM

# Tested on: not listed separately
# Assay: Selectivity index, ratio of CC50 for human MT4 cells to EC50 for antiviral activity against HIV1 IIIB infected in MT4 cells
# Assay type: toxicity, cell-based
# Conditions: read-out: Ratio CC50/EC50
row,SMILES,selectivity ratio
1,CCNC(=O)Cn1cc(CN2CCC(Nc3nc(Oc4c(C)cc(/C=C/C#N)cc4C)c4sccc4n3)CC2)nn1,3640
2,Cc1cc(/C=C/C#N)cc(C)c1Oc1ccnc(NC2CCN(Cc3cn(CC(N)=O)nn3)CC2)n1,21600
3,Cc1cc(/C=C/C#N)cc(C)c1Oc1nc(NC2CCN(Cc3cn(CC(=O)NC4CCOCC4)nn3)CC2)nc2ccccc12,2300
4,CCNC(=O)Cn1cc(CN2CCC(Nc3nccc(Oc4c(C)cc(/C=C/C#N)cc4C)n3)CC2)nn1,14800

# Tested on: Human immunodeficiency virus 1
# Assay: Antiviral activity against HIV1 IIIB harboring L100I mutant infected in MT4 cells assessed as reduction in virus induced cytopathic effect incubated for 5 days by MTT method
# Assay type: functional, organism-based
# Conditions: Human immunodeficiency virus 1, IIIB, MT4, 120 h
row,SMILES,EC50
1,CCNC(=O)Cn1cc(CN2CCC(Nc3nc(Oc4c(C)cc(/C=C/C#N)cc4C)c4sccc4n3)CC2)nn1,12 nM
2,Cc1cc(/C=C/C#N)cc(C)c1Oc1ccnc(NC2CCN(Cc3cn(CC(N)=O)nn3)CC2)n1,30 nM
3,Cc1cc(/C=C/C#N)cc(C)c1Oc1nc(NC2CCN(Cc3cn(CC(=O)NC4CCOCC4)nn3)CC2)nc2ccccc12,15 nM
4,CCNC(=O)Cn1cc(CN2CCC(Nc3nccc(Oc4c(C)cc(/C=C/C#N)cc4C)n3)CC2)nn1,7 nM

# Tested on: Human immunodeficiency virus 1
# Assay: Antiviral activity against HIV1 IIIB harboring K103 N mutant infected in MT4 cells assessed as reduction in virus induced cytopathic effect incubated for 5 days by MTT method
# Assay type: functional, organism-based
# Conditions: Human immunodeficiency virus 1, IIIB, MT4, 120 h
row,SMILES,EC50
1,CCNC(=O)Cn1cc(CN2CCC(Nc3nc(Oc4c(C)cc(/C=C/C#N)cc4C)c4sccc4n3)CC2)nn1,6 nM
2,Cc1cc(/C=C/C#N)cc(C)c1Oc1ccnc(NC2CCN(Cc3cn(CC(N)=O)nn3)CC2)n1,3 nM
3,Cc1cc(/C=C/C#N)cc(C)c1Oc1nc(NC2CCN(Cc3cn(CC(=O)NC4CCOCC4)nn3)CC2)nc2ccccc12,14 nM
4,CCNC(=O)Cn1cc(CN2CCC(Nc3nccc(Oc4c(C)cc(/C=C/C#N)cc4C)n3)CC2)nn1,2 nM

# Tested on: Human immunodeficiency virus 1
# Assay: Antiviral activity against HIV1 IIIB harboring Y181C mutant infected in MT4 cells assessed as reduction in virus induced cytopathic effect incubated for 5 days by MTT method
# Assay type: functional, organism-based
# Conditions: Human immunodeficiency virus 1, IIIB, MT4, 120 h
row,SMILES,EC50
1,CCNC(=O)Cn1cc(CN2CCC(Nc3nc(Oc4c(C)cc(/C=C/C#N)cc4C)c4sccc4n3)CC2)nn1,25 nM
2,Cc1cc(/C=C/C#N)cc(C)c1Oc1ccnc(NC2CCN(Cc3cn(CC(N)=O)nn3)CC2)n1,21 nM
3,Cc1cc(/C=C/C#N)cc(C)c1Oc1nc(NC2CCN(Cc3cn(CC(=O)NC4CCOCC4)nn3)CC2)nc2ccccc12,31 nM
4,CCNC(=O)Cn1cc(CN2CCC(Nc3nccc(Oc4c(C)cc(/C=C/C#N)cc4C)n3)CC2)nn1,7 nM

# Tested on: Human immunodeficiency virus 1
# Assay: Antiviral activity against HIV1 IIIB harboring Y188L mutant infected in MT4 cells assessed as reduction in virus induced cytopathic effect incubated for 5 days by MTT method
# Assay type: functional, organism-based
# Conditions: Human immunodeficiency virus 1, IIIB, MT4, 120 h
row,SMILES,EC50
1,CCNC(=O)Cn1cc(CN2CCC(Nc3nc(Oc4c(C)cc(/C=C/C#N)cc4C)c4sccc4n3)CC2)nn1,80 nM
2,Cc1cc(/C=C/C#N)cc(C)c1Oc1ccnc(NC2CCN(Cc3cn(CC(N)=O)nn3)CC2)n1,729 nM
3,Cc1cc(/C=C/C#N)cc(C)c1Oc1nc(NC2CCN(Cc3cn(CC(=O)NC4CCOCC4)nn3)CC2)nc2ccccc12,55 nM
4,CCNC(=O)Cn1cc(CN2CCC(Nc3nccc(Oc4c(C)cc(/C=C/C#N)cc4C)n3)CC2)nn1,406 nM

# Tested on: Human immunodeficiency virus 1
# Assay: Antiviral activity against HIV1 IIIB harboring E138K mutant infected in MT4 cells assessed as reduction in virus induced cytopathic effect incubated for 5 days by MTT method
# Assay type: functional, organism-based
# Conditions: Human immunodeficiency virus 1, IIIB, MT4, 120 h
row,SMILES,EC50
1,CCNC(=O)Cn1cc(CN2CCC(Nc3nc(Oc4c(C)cc(/C=C/C#N)cc4C)c4sccc4n3)CC2)nn1,33 nM
2,Cc1cc(/C=C/C#N)cc(C)c1Oc1ccnc(NC2CCN(Cc3cn(CC(N)=O)nn3)CC2)n1,24 nM
3,Cc1cc(/C=C/C#N)cc(C)c1Oc1nc(NC2CCN(Cc3cn(CC(=O)NC4CCOCC4)nn3)CC2)nc2ccccc12,27 nM
4,CCNC(=O)Cn1cc(CN2CCC(Nc3nccc(Oc4c(C)cc(/C=C/C#N)cc4C)n3)CC2)nn1,11 nM

# Tested on: Human immunodeficiency virus 1
# Assay: Antiviral activity against HIV1 IIIB harboring F227L/V106A double mutant infected in MT4 cells assessed as reduction in virus induced cytopathic effect incubated for 5 days by MTT method
# Assay type: functional, organism-based
# Conditions: Human immunodeficiency virus 1, IIIB, MT4, 120 h
row,SMILES,EC50
1,CCNC(=O)Cn1cc(CN2CCC(Nc3nc(Oc4c(C)cc(/C=C/C#N)cc4C)c4sccc4n3)CC2)nn1,168 nM
2,Cc1cc(/C=C/C#N)cc(C)c1Oc1ccnc(NC2CCN(Cc3cn(CC(N)=O)nn3)CC2)n1,188 nM
3,Cc1cc(/C=C/C#N)cc(C)c1Oc1nc(NC2CCN(Cc3cn(CC(=O)NC4CCOCC4)nn3)CC2)nc2ccccc12,645 nM
4,CCNC(=O)Cn1cc(CN2CCC(Nc3nccc(Oc4c(C)cc(/C=C/C#N)cc4C)n3)CC2)nn1,164 nM

# Tested on: Human immunodeficiency virus 1
# Assay: Antiviral activity against HIV1 IIIB harboring RES056 mutant infected in MT4 cells assessed as reduction in virus induced cytopathic effect incubated for 5 days by MTT method
# Assay type: functional, organism-based
# Conditions: Human immunodeficiency virus 1, IIIB, MT4, 120 h
row,SMILES,EC50
1,CCNC(=O)Cn1cc(CN2CCC(Nc3nc(Oc4c(C)cc(/C=C/C#N)cc4C)c4sccc4n3)CC2)nn1,181 nM
2,Cc1cc(/C=C/C#N)cc(C)c1Oc1ccnc(NC2CCN(Cc3cn(CC(N)=O)nn3)CC2)n1,547 nM
3,Cc1cc(/C=C/C#N)cc(C)c1Oc1nc(NC2CCN(Cc3cn(CC(=O)NC4CCOCC4)nn3)CC2)nc2ccccc12,161 nM
4,CCNC(=O)Cn1cc(CN2CCC(Nc3nccc(Oc4c(C)cc(/C=C/C#N)cc4C)n3)CC2)nn1,215 nM
